Results from PMC11117723, “Benzene with Alkyl Chains Is a Universal Scaffold for Multivalent Virucidal Antivirals” (ACS Central Science, 2024).
Entries after “also recorded” stand apart in the source; their conditions may differ. Where two headings read alike, the source gives them in different places.

What was measured:
SARS-CoV-2 Alpha = assay type: in vivo, Syrian hamster
HEK293T cells = assay: HEK293T cell cytotoxicity (Zombie NIR flow cytometry); settings: read-out: CC50 (95% CI), 293T cells; HEK293T cells; KSHV line
HSV-2 [1] = assay: HSV-2 inhibition under four treatment conditions (cell pretreatment, virus pretreatment, cotreatment, post-treatment); assay type: cell-based
HSV-2 [2] = assay: HSV-2 DNA release (DNA exposure) assay with DNase; settings: 43.2 and 86.5 μM
Protocol: To determine whether the virucidal effect is caused by the damage to the viral particles, we performed DNA release assays. Briefly, we incubated HSV-2 and B6C11S mixtures with DNase or buffer, inactivated the DNase, and then quantified the DNA amounts in the two samples (Figure 2c).

MDCK cells = settings: read-out: CC50 (95% CI), MDCK cells
TZM-bl cells = assay: TZM-bl cell cytotoxicity (WST-1); settings: read-out: CC50 (95% CI), TZM-bl cells; HIV-1 line
Vero cells = assay: Vero cell cytotoxicity (MTS assay); assay type: cell-based; settings: 24 h, read-out: CC50 (95% CI), Vero cells
Raji cells = assay: Raji cell cytotoxicity (Zombie NIR flow cytometry); settings: read-out: CC50 (95% CI), Raji cells; EBV line

O=S(=O)(O)OCCCCCCCCCCCSCc1c(CSCCCCCCCCCCCOS(=O)(=O)O)c(CSCCCCCCCCCCCOS(=O)(=O)O)c(CSCCCCCCCCCCCOS(=O)(=O)O)c(CSCCCCCCCCCCCOS(=O)(=O)O)c1CSCCCCCCCCCCCOS(=O)(=O)O [B6C11S]
body weight change of infected hamsters (SARS-CoV-2 Alpha; […], vs untreated group): no significant change | body weight change of infected hamsters (SARS-CoV-2 Alpha; hamster, in vivo): decreased the body weight change | histopathological evaluation of lung tissues (SARS-CoV-2 Alpha; hamster, in vivo): improved pulmonary conditions | infectious viral titer (TCID50) in the lungs vs untreated (SARS-CoV-2 Alpha; hamster, in vivo): significantly decreased the viral titer; also recorded: significant reduction in the infectious viral load | severe lung damage (histopathology categories E and F) (SARS-CoV-2 Alpha; hamster, in vivo): reducing severe lung damage | viral RNA copies in lung vs untreated (SARS-CoV-2 Alpha; hamster, in vivo): significantly decreased viral RNA copies | viral RNA levels in oral swab vs untreated (SARS-CoV-2 Alpha; hamster, in vivo): significantly lower viral RNA levels | viral titers (viral RNA) in swab samples and lung tissues vs untreated (SARS-CoV-2 Alpha; hamster, in vivo): did not find any notable differences; also recorded: No statistical difference | CC50 (HEK293T cells): > 162 µM | HSV-2 inhibition, cell pretreatment (HSV-2 [1]; condition (i) cell pretreatment, 21.6 μM): no inhibition | decrease of percentage of infected cells (HSV-2 [1]; condition (ii) virus pretreatment, 5.4 μM): over 85% | decrease of percentage of infected cells (HSV-2 [1]; condition (iii) cotreatment, 5.4 μM): over 85% | decrease of percentage of infected cells (HSV-2 [1]; condition (iv) post-treatment, 21.6 μM): 85% | CC50 (Vero E6 cells; read-out: CC50 (95% CI), Vero E6 cells, SARS-CoV-2 (Alpha) line): 17.5 µM | CC50 (Vero E6 cells; read-out: CC50 (95% CI), Vero E6 cells, value repeated in the SARS-CoV-2 (Omicron) line): 17.5 µM | release of viral DNA (HSV-2) (HSV-2 [2]): induced the release of viral DNA | CC50 (MDCK cells): > 5.4 µM | CC50 (TZM-bl cells): > 54 µM | CC50 (Vero cells): 200 µM | CC50 (Raji cells): > 162 µM
